The record followed here is patent US7544703B2, “Cyclic compound having 4-pyridylalkylthio group having substituted or unsubstituted amino group introduced therein” (Santen Pharmaceutical Co., Ltd., priority 2004, dated 2009).

Assay [1] has as its system HUVEC (normal human umbilical vein endothelial cells). The assay can be described thus: VEGF-induced HUVEC proliferation: cell proliferation inhibitory action test.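 Further: each well holds 100 µL cell suspension before compound addition.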 It is filed as cell-based. As to conditions: 72 h, 5 μL of 20 μg/mL test compound solution per well, WST-8 absorbance at 450 nm three days after VEGF addition, read-out: Cell proliferation inhibition rate (%). An outline of the steps:
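HUVECs in 0.5% FBS F12K on type I collagen were pretreated 1 h with compound (20 μg/mL solution in PBS from DMSO stock, 5 μL/well), then stimulated with VEGF (400 ng/mL solution). After 3 days at 37 °C, viability was read by WST-8 A450. Inhibition % was calculated against a 1.0% DMSO control, minus cell+medium blank.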
(In general: Tetrazolium dyes change colour on reduction, which living cells bring about.)

The subject of a further assay is B16 cells. The assay can be described thus: Tumor growth inhibitory action test using cancer models in mice (B16 cells). It is filed as in vivo. The conditions noted are these: C57BL/6N mouse, B16 cells intradermal; 100 mg/kg/day oral once a day, day 0 to day 10; average of 9 mice per group; read-out: Tumor tissue weight inhibition rate (%). On the procedure: A tumor growth inhibitory action test of the compounds of the present invention was performed using a tumor growth model in mice, which is one of the widely-used methods of evaluating in vivo anticancer effects of drugs.
As one of the widely-used methods of evaluating anticancer effects of drugs, a tumor growth inhibitory action test using cancer models in mice has been reported in Cancer Res., 59, 5209-5218 (1999). According to the method described in the above-mentioned document, a tumor growth inhibitory action test of the compounds of the present invention was performed, the tumor tissue weight inhibition rate was calculated, and the anticancer effect of each of the compounds of the present invention was evaluated using the obtained rate as an index.
A 1% aqueous methyl cellulose solution was added to each test compound to suspend it with a sonicator, whereby a 10 mg/mL test compound suspension was prepared.
Physiological saline was added to B16 cells, whereby a 3.3×10^7 cells/mL B16 cell suspension was prepared.
• 1) The back of each mouse (female, 6 weeks of age, C57BL/6N mouse) was depilated using a depilatory under Nembutal anesthesia. • 2) Several days after the depilation, the B16 cell suspension (300 μL) was injected intradermally into the back of the mouse under Nembutal anesthesia. • 3) From the B16 cell injection day (i.e. on day 0) to day 10, the test compound suspension (100 mg/kg/day) was orally administered once a day consecutively. • 4) Ten days after the injection of the cells, the mouse was euthanized with CO2 gas. • 5) A tumor tissue was enucleated from the mouse, and the weight of the tumor tissue was measured with an electronic balance. • 6) A test was performed in the same manner as in 1) to 5) except that the 1% aqueous methyl cellulose solution was used instead of the test compound suspension, and the result was used as a control. (Calculation of Tumor Tissue Weight Inhibition Rate)
A tumor tissue weight inhibition rate (the average of 9 mice per group), which was used as an index of anticancer effect, was calculated according to the following calculation equation. Tumor tissue weight inhibition rate (%)=100−(Mx/Mo)×100 (Calculation Equation) Mo: Tumor tissue weight of control group Mx: Tumor tissue weight of test compound solution administration group (Test Results and Discussion)

Structures can show the parent of a compound that is named as a salt.

Regarding `Cc1cc(C)cc(NC(=O)c2cccnc2SCc2ccnc(N)c2)c1` [Compound 3-1, 2-(2-Aminopyridin-4-ylmethylthio)-N-(3,5-dimethylphenyl)pyridine-3-carboxamide monohydrochloride], the inhibition at 20 µg/mL (stock) in assay [1] is 100%. Besides, the inhibition in vivo at 100 mg/kg/day with B16 cells was found to be 70%.

For `CNc1cc(CSc2ncccc2C(=O)Nc2ccc(OC(F)(F)F)cc2)ccn1` [Compound 3-8, 2-(2-Methylaminopyridin-4-ylmethylthio)-N-(4-trifluoromethoxyphenyl)pyridine-3-carboxamide monohydrochloride], the inhibition at 20 µg/mL (stock) in assay [1] was determined as 100%. Moreover, the inhibition in vivo at 100 mg/kg/day in the assay on B16 cells was found to be 80%.

Take `Nc1cc(CSc2ncccc2C(=O)Nc2ccc(OC(F)(F)F)cc2)ccn1` [Compound 3-10, 2-(2-Aminopyridin-4-ylmethylthio)-N-(4-trifluoromethoxyphenyl)pyridine-3-carboxamide]: the inhibition at 20 µg/mL (stock) in assay [1] was 97%. Moreover, the inhibition in vivo at 100 mg/kg/day in the assay with B16 cells was 85%.

As for `CC(=O)Nc1cc(CSc2ncccc2C(=O)Nc2cc(C)cc(C)c2)ccn1` [Compound 4-1, 2-(2-Acetylaminopyridin-4-ylmethylthio)-N-(3,5-dimethylphenyl)pyridine-3-carboxamide], the inhibition at 20 µg/mL (stock) in assay [1] came to 100%. For the same compound, in the assay on B16 cells, the inhibition in vivo at 100 mg/kg/day came out at 75%.

For `CC(=O)Nc1cc(CSc2ncccc2C(=O)Nc2ccc(Cl)cc2)ccn1` [Compound 4-10, 2-(2-Acetylaminopyridin-4-ylmethylthio)-N-(4-chlorophenyl)pyridine-3-carboxamide], the inhibition at 20 µg/mL (stock) in assay [1] is 100%. Further, the inhibition in vivo at 100 mg/kg/day in the assay with B16 cells came to 75%.

On to `CC(=O)Nc1cc(CSc2ncccc2C(=O)Nc2ccc(OC(F)(F)F)cc2)ccn1` [Compound 4-11, 2-(2-Acetylaminopyridin-4-ylmethylthio)-N-(4-trifluoromethoxyphenyl)pyridine-3-carboxamide], for which the inhibition at 20 µg/mL (stock) in assay [1] was found to be 93%. In addition, the inhibition in vivo at 100 mg/kg/day in the assay on B16 cells is 86%.

As to `CNC(=O)Nc1cc(CSc2ncccc2C(=O)Nc2cc(C)cc(C)c2)ccn1` [Compound 9-1, N-(3,5-Dimethylphenyl)-2-[2-(N′-methylureido)pyridin-4-ylmethylthio]pyridine-3-carboxamide], in assay [1], the inhibition at 20 µg/mL (stock) was 100%. The inhibition in vivo at 100 mg/kg/day in the assay with B16 cells worked out at 43%.

`CC(=O)OCC(=O)Nc1cc(CSc2ncccc2C(=O)Nc2cc(C)cc(C)c2)ccn1` [Compound 10-1, 2-(2-Acetoxyacetylaminopyridin-4-ylmethylthio)-N-(3,5-dimethylphenyl)pyridine-3-carboxamide]: the inhibition at 20 µg/mL (stock) in assay [1] came out at 100%. The inhibition in vivo at 100 mg/kg/day in the assay on B16 cells is 54%.

Turning to `O=C(CO)Nc1cc(CSc2ncccc2C(=O)Nc2ccc(OC(F)(F)F)cc2)ccn1` [Compound 12-1, 2-(2-Hydroxyacetylaminopyridin-4-ylmethylthio)-N-(4-trifluoromethoxyphenyl)pyridine-3-carboxamide], the inhibition at 20 µg/mL (stock) in assay [1] was 78%. Also, the inhibition in vivo at 100 mg/kg/day with B16 cells stood at 85%.
